Assays:
BRAF = BRAF (Homo sapiens (Human), UniProt P15056); assay: Inhibitory activity against kinase BRAF, Z'-LYTE method (Invitrogen); format: biochemical; settings: 1 μM compound
Method: (§1) Inhibitory activities Inhibitory activities of compounds against BRAF, and BRAF V600E were measured by Invitrogen using Z′-LYTE® Method as briefly described in the following. 4× Test compounds are dissolved in 1% DMSO. […] ATP solutions are diluted to a 4×ATP working concentration in Kinase Buffer (50 mM HEPES pH 7.5, 0.01% BRIJ-35, 10 mM MgCl2, 1 mM EGTA). Reaction started by 30-second shaking of mixture consisting of 2.5 μL 4× test compound, […] and 2.5 μL 4×ATP Solution on Bar-coded Corning, low volume NBS, black 384-well plate (Corning Cat. #3676). Then the mixture was incubated for 60-minute at room temperature for the kinase reaction, followed by addition of 5 μL of a 1:1024 dilution of development reagent A and 30-second plate shake. The mixture was then incubated for another 60-minute at room temperature for development reaction. Fluorescence was read by plate reader. IC50 was calculated by plotting the concentration of compound vs the percentage of inhibition in treated wells using GraphPad Prism 5.
(§2) Table 2 and 3 show % inhibition at 1 μM of several compounds of the invention against BRAF and BRAF V600E, respectively, using Z′-LYTE® method.

BRAF V600E = BRAF V600E (Homo sapiens (Human), UniProt P15056, V600E); assay: Inhibitory activity against kinase BRAF V600E, Z'-LYTE method (Invitrogen); format: biochemical; settings: 1 μM compound; read-out: Inhibition (% inhibition at 1 μM) against BRAF V600E
Chain of BRAF V600E (P15056 whole entry V600E): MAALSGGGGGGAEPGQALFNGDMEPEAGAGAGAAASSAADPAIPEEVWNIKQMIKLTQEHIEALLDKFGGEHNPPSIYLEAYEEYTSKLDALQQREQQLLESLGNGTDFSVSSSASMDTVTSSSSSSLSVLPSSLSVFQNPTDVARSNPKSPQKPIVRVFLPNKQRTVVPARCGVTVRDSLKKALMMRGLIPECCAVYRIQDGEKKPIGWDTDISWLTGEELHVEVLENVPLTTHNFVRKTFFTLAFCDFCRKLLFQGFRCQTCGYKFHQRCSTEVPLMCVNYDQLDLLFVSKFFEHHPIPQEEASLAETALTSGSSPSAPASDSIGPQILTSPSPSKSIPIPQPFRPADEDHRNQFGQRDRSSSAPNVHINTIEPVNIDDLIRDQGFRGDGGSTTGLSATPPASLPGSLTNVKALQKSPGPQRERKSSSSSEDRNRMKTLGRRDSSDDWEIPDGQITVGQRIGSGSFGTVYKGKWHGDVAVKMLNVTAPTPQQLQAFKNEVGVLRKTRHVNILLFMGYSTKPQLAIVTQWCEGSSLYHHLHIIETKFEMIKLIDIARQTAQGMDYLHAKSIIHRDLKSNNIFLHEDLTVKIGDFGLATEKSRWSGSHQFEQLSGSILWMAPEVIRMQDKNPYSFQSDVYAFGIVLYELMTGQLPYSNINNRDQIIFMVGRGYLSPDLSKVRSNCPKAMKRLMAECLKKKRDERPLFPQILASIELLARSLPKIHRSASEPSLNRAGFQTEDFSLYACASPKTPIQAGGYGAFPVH
Method: as §1, §2
The scale utilized in Table 4 is as follows: +++ less than 100 nM; and ++ greater than 100 nM.

KDR (VEGFR2) = KDR (VEGFR2) (Homo sapiens (Human), UniProt P35968); assay: Inhibitory activity against kinase KDR, Z'-LYTE method (Invitrogen); format: biochemical; settings: 1 μM compound; read-out: Inhibition (% inhibition at 1 μM) against KDR
Chain of KDR (VEGFR2) (P35968 20-1356): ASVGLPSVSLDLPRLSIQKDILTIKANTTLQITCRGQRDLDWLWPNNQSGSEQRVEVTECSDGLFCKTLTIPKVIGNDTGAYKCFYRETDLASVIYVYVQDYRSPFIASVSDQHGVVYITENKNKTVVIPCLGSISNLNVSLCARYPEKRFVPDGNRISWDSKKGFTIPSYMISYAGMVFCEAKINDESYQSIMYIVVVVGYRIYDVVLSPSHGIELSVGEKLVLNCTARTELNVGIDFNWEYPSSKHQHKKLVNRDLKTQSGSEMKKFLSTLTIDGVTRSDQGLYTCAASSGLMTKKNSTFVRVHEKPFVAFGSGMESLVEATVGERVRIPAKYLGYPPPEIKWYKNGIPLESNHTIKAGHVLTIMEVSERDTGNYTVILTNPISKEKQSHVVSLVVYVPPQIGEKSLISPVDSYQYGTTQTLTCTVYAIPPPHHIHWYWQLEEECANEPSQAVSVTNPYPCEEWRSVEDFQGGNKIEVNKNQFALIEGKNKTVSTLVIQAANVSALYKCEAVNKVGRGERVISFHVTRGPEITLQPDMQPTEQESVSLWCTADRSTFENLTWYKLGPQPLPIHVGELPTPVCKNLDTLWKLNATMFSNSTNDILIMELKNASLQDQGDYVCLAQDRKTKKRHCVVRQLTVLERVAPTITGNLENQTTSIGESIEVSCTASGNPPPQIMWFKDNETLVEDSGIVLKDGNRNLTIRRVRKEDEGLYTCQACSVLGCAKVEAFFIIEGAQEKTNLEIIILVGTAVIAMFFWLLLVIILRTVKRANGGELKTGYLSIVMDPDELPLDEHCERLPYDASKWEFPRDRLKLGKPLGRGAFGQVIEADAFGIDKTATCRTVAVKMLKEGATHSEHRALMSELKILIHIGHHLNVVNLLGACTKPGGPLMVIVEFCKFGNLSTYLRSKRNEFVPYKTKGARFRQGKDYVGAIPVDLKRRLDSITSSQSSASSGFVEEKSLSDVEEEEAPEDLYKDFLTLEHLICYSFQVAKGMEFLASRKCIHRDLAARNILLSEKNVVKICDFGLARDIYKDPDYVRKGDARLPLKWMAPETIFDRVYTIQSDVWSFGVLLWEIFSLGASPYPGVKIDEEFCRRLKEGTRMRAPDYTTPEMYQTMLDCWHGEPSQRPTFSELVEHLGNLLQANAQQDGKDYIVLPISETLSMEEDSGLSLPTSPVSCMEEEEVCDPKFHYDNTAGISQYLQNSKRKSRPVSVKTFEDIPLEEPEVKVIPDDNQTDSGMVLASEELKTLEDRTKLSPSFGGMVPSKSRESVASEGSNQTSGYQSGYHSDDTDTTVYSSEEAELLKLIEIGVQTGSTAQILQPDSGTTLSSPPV
Method: Inhibitory activities of compounds against KDR (VEGFR2) were also measured by Invitrogen using Z′-LYTE® Method as described above with the following modification. The 2× KDR (VEGFR2)/Tyr 01 mixture is prepared in 50 mM HEPES pH 7.5, 0.01% BRIJ-35, 10 mM MgCl2, 1 mM EGTA. The final 10 μL Kinase Reaction consists of 0.5-11.7 ng KDR (VEGFR2) and 2 μM Tyr 01 in 50 mM HEPES pH 7.5, 0.01% BRIJ-35, 10 mM MgCl2, 1 mM EGTA. After the 1 hour Kinase Reaction incubation, 5 μL of a 1:256 dilution of Development Reagent B is added.
The scale utilized in Table 5 is as follows: +++ less than 100 nM; and ++ greater than 100 nM

A549 cells = assay: Inhibition of cancer cell growth, MTT or MTS assay, A549; format: cell-based; settings: Homo sapiens, 72 h incubation
Method: (§3) Inhibition of cell growth by compounds was measured using MTT or MTS assay. Tumor cell lines were purchased from ATCC (American Type Culture Collection, Manassas, Va.). All cell lines were maintained in RPMI 1640 (Hyclone) supplemented with 10% fetal bovine serum (FBS, Hyclone), glutamine (2 mM, Hyclone), and antibiotics (penicillin 100 U/mL and streptomycin 50 μg/mL) at 37° C. in a humidified atmosphere of 5% CO2 in air. Taxol (as a positive control, Sigma) and compounds were dissolved in DMSO (Sigma), and the final concentration of DMSO in the medium was 1%. Tumor cells were plated in 96-well plates at densities of about 2000 (A375) or 4000 (A549 and Colo205) cells/well of a 96-well plate and allowed to adhere/grow for 24 h. They were then treated with various concentrations of drug and incubated for 72 h. For MTT method, medium was then removed by inverting and tapping the plates. 100 μL of MTT (0.5 mg/ml) was added to each well followed by an incubated at 37° C. for 4 h. MTT was then removed and 200 μL of DMSO was added to each well, and the ODs at 570 nm were measured after a 5 second shaking cycle in a 96-well spectrophotometer. For MTS method, 20 μL MTS (CellTiter 96 Aqueous One Solution, Promega) was added to each well followed by an incubated at 37° C. for 2-4 h, solutions were then directly put in a 96-well spectrophotometer, and the ODs at 490 nm were measured.
(§4) All concentrations of compounds were tested in triplicate and controls were averaged over 4 wells. IC50 was calculated by plotting the concentration of compound vs the percentage of inhibition in treated wells using GraphPad Prism 5. […] The scale utilized in Tables […] is as follows: +++ less than 1000 nM; ++ between 1000 nM and 5000 nM; and + greater than 5000 nM. The scale utilized in Table 8 is as follows: +++ less than 2000 nM; ++ between 2000 nM and 5000 nM; and + greater than 5000 nM.

A375 cells = assay: Inhibition of cancer cell growth, MTT or MTS assay, A375; format: cell-based; settings: Homo sapiens, A-375; 72 h incubation
Method: as §3, §4

Chain of BRAF (P15056 whole entry): as the sequence (P15056 whole entry V600E) above, with E600V counted along it

inhibition at 1 µM (BRAF) [%]	inhibition at 1 µM (BRAF V600E) [%]	inhibition at 1 µM (KDR (VEGFR2)) [%]	IC50 (A549 cells) [µM]	IC50 (A375 cells) [nM]	Compound
> 89	> 89	> 89	> 5	–	O=C(Nc1ccc(F)cc1)Nc1cccc(Oc2ccc3ncc(N4CCNCC4)nc3c2)c1 [Compound C038, 1-(4-fluorophenyl)-3-(3-((3-(piperazin-1-yl)quinoxalin-6-yl)oxy)phenyl)urea]
> 89	> 89	70 to 89	2 to 5	–	O=C(Nc1cc(F)cc(F)c1)Nc1ccc(F)c(Oc2ccc3ncc(N4CCNCC4)nc3c2)c1 [Compound C062, 1-(3,5-difluorophenyl)-3-(4-fluoro-3-((3-(piperazin-1-yl)quinoxalin-6-yl)oxy)phenyl)urea]
> 89	> 89	> 89	2 to 5	–	O=C(Nc1ccc(Cl)cc1)Nc1cccc(Oc2ccc3ncc(N4CCNCC4)nc3c2)c1 [Compound C051, 1-(4-chlorophenyl)-3-(3-((3-(piperazin-1-yl)quinoxalin-6-yl)oxy)phenyl)urea]
> 89	> 89	> 89	2 to 5	–	O=C(Nc1cccc(Cl)c1)Nc1cccc(Oc2ccc3ncc(N4CCNCC4)nc3c2)c1 [Compound C050, 1-(3-chlorophenyl)-3-(3-((3-(piperazin-1-yl)quinoxalin-6-yl)oxy)phenyl)urea]
70 to 89	> 89	70 to 89	> 5	–	O=C(Nc1cccc(Oc2ccc3ncc(N4CCOCC4)nc3c2)c1)Nc1ccc(F)c(F)c1 [Compound C044, 1-(3,4-difluorophenyl)-3-(3-((3-morpholinoquinoxalin-6-yl)oxy)phenyl)urea]
> 89	> 89	> 89	2 to 5	–	O=C(Nc1cccc(C(F)(F)F)c1)Nc1ccc(F)c(Oc2ccc3ncc(N4CCNCC4)nc3c2)c1 [Compound C065, 1-(4-fluoro-3-((3-(piperazin-1-yl)quinoxalin-6-yl)oxy)phenyl)-3-(3-(trifluoromethyl)phenyl)urea]
< 70	> 89	> 89	> 5	–	O=C(Nc1ccc(Oc2ccc3ncc(N4CCOCC4)nc3c2)cc1)Nc1cccc(Cl)c1 [Compound C081, 1-(3-chlorophenyl)-3-(4-((3-morpholinoquinoxalin-6-yl)oxy)phenyl)urea]
> 89	> 89	70 to 89	2 to 5	–	O=C(Nc1cccc(F)c1)Nc1ccc(F)c(Oc2ccc3ncc(N4CCNCC4)nc3c2)c1 [Compound C059, 1-(4-fluoro-3-((3-(piperazin-1-yl)quinoxalin-6-yl)oxy)phenyl)-3-(3-fluorophenyl)urea]
> 89	> 89	> 89	2 to 5	–	O=C(Nc1cccc(Oc2ccc3ncc(N4CCNCC4)nc3c2)c1)Nc1cccc(C(F)(F)F)c1 [Compound C040, 1-(3-((3-(piperazin-1-yl)quinoxalin-6-yl)oxy)phenyl)-3-(3-(trifluoromethyl)phenyl)urea]
> 89	> 89	> 89	< 2	–	O=C(Nc1cccc(Oc2ccc3ncc(N4CCNCC4)nc3c2)c1)Nc1ccc(Cl)c(C(F)(F)F)c1 [Compound C041, 1-(4-chloro-3-(trifluoromethyl)phenyl)-3-(3-((3-(piperazin-1-yl)quinoxalin-6-yl)oxy)phenyl)urea]
–	70 to 89	70 to 89	2 to 5	< 1000	O=C(Nc1cccc(C(F)(F)F)c1)Nc1ccc(F)c(Oc2ccc3ncc(N4CCOCC4)nc3c2)c1 [Compound C035, 1-(4-fluoro-3-((3-morpholinoquinoxalin-6-yl)oxy)phenyl)-3-(3-(trifluoromethyl)phenyl)urea]
–	70 to 89	70 to 89	2 to 5	1000 to 5000	O=C(Nc1cc(F)cc(Oc2ccc3ncc(N4CCOCC4)nc3c2)c1)Nc1cccc(C(F)(F)F)c1 [Compound C032, 1-(3-fluoro-5-((3-morpholinoquinoxalin-6-yl)oxy)phenyl)-3-(3-(trifluoromethyl)phenyl)urea]
–	> 89	70 to 89	2 to 5	1000 to 5000	O=C(Nc1cccc(Oc2ccc3ncc(N4CCOCC4)nc3c2)c1)Nc1cccc(C(F)(F)F)c1 [Compound C046, 1-(3-((3-morpholinoquinoxalin-6-yl)oxy)phenyl)-3-(3-(trifluoromethyl)phenyl)urea]
–	70 to 89	70 to 89	> 5	1000 to 5000	O=C(Nc1ccc(Oc2ccc3nccnc3c2)cc1)Nc1ccc(Cl)c(C(F)(F)F)c1 [Compound C076, 1-(4-chloro-3-(trifluoromethyl)phenyl)-3-(4-(quinoxalin-6-yloxy)phenyl)urea]
–	> 89	70 to 89	< 2	1000 to 5000	O=C(Nc1cccc(C(F)(F)F)c1)Nc1ccc(F)c(Oc2ccc3nccnc3c2)c1 [Compound C024, 1-(4-fluoro-3-(quinoxalin-6-yloxy)phenyl)-3-(3-(trifluoromethyl)phenyl)urea]
–	70 to 89	> 89	2 to 5	1000 to 5000	O=C(Nc1ccc(F)c(Oc2ccc3ncc(N4CCOCC4)nc3c2)c1)c1cccc(C(F)(F)F)c1 [Compound C026, N-(4-fluoro-3-((3-morpholinoquinoxalin-6-yl)oxy)phenyl)-3-(trifluoromethyl)benzamide]
–	70 to 89	70 to 89	2 to 5	> 5000	O=C(Nc1ccc(F)c(Oc2ccc3nccnc3c2)c1)c1ccc(Cl)c(C(F)(F)F)c1 [Compound C010, 4-chloro-N-(4-fluoro-3-(quinoxalin-6-yloxy)phenyl)-3-(trifluoromethyl)benzamide]
–	< 70	70 to 89	< 2	< 1000	O=C(Nc1ccc(F)c(Oc2ccc3nccnc3c2)c1)Nc1ccc(Cl)c(C(F)(F)F)c1 [Compound C011, 1-(4-chloro-3-(trifluoromethyl)phenyl)-3-(4-fluoro-3-(quinoxalin-6-yloxy)phenyl)urea]
–	> 89	< 70	2 to 5	1000 to 5000	O=C(Nc1cccc(F)c1)Nc1ccc(F)c(Oc2ccc3nccnc3c2)c1 [Compound C023, 1-(4-fluoro-3-(quinoxalin-6-yloxy)phenyl)-3-(3-fluorophenyl)urea]

Source: patent US10590106B2, “Certain chemical entities, compositions, and methods” (NeuPharma, Inc., priority 2012, dated 2020)
